Source: PubChem BioAssay (NCI)
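The compound was tested at five concentrations on cells cultured in 96-well plates, with a 48-hour exposure period. TGI denotes the concentration required for complete inhibition of growth.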

Columns and labels:
Assay in all cases: growth of human tumour cells (NCI), 48 h
UACC-257 melanoma = tested on: UACC-257 melanoma
SK-MEL-2 melanoma = tested on: SK-MEL-2 melanoma
OVCAR-3 ovarian = tested on: OVCAR-3 ovarian
SK-OV-3 ovarian = tested on: SK-OV-3 ovarian
NCI-H23 lung = tested on: NCI-H23 lung
RPMI-8226 leukemia = tested on: RPMI-8226 leukemia
EKVX NSCLC = tested on: EKVX NSCLC
MOLT-4 leukemia = tested on: MOLT-4 leukemia
KM12 colon = tested on: KM12 colon
NCI-H522 lung = tested on: NCI-H522 lung
HL-60(TB) leukemia = tested on: HL-60(TB) leukemia
BT-549 breast = tested on: BT-549 breast
SNB-19 CNS = tested on: SNB-19 CNS
SF-539 CNS = tested on: SF-539 CNS
NCI-H226 lung = tested on: NCI-H226 lung
T-47D breast = tested on: T-47D breast
SF-268 CNS = tested on: SF-268 CNS
CAKI-1 renal = tested on: CAKI-1 renal
COLO 205 colon = tested on: COLO 205 colon
DMS 273 small cell lung = tested on: DMS 273 small cell lung

Row | SMILES | TGI (UACC-257 melanoma) [µM] | TGI (SK-MEL-2 melanoma) [µM] | TGI (OVCAR-3 ovarian) [µM] | TGI (SK-OV-3 ovarian) [µM] | TGI (NCI-H23 lung) [µM] | TGI (RPMI-8226 leukemia) [µM] | TGI (EKVX NSCLC) [µM] | TGI (MOLT-4 leukemia) [µM] | TGI (KM12 colon) [µM] | TGI (NCI-H522 lung) [µM] | TGI (HL-60(TB) leukemia) [µM] | TGI (BT-549 breast) [µM] | TGI (SNB-19 CNS) [µM] | TGI (SF-539 CNS) [µM] | TGI (NCI-H226 lung) [µM] | TGI (T-47D breast) [µM] | TGI (SF-268 CNS) [µM] | TGI (CAKI-1 renal) [µM] | TGI (COLO 205 colon) [µM] | TGI (DMS 273 small cell lung) [µM]
1 | CCCOP(=O)(OCCC)OC(C(F)(F)F)C(F)(F)F | > 100 | > 100 | > 100 | > 100 | > 100 | > 100 | > 100 | > 100 | > 100 | > 100 | > 100 | > 100 | > 100 | > 100 | > 100 | > 100 |  |  |  | 
2 | CN1Cc2cc(O)c(O)cc2C(O)C1 (configuration not stated) | > 100 | > 100 | > 100 | > 100 | > 100 | > 100 | > 100 | > 100 | > 100 | > 100 | > 100 | > 100 | > 100 | > 100 | > 100 | > 100 | > 100 | > 100 | > 100 | 
3 | CCOc1ccc(C(C)c2cc3c(cc2OC)OCO3)cc1 (configuration not stated) | 52.8 |  | 27.7 | > 100 | > 100 | 22.2 |  | 15 |  | 0.166 |  |  | > 100 | 0.631 | 0.752 |  | 45.5 | > 100 |  | 11.7
4 | COc1cc2c(cc1Oc1c(Oc3c(O)c(OC)cc4c3C(CC(C)C)N(C)CC4)c(OC)cc3c1C(CC(C)C)N(C)CC3)C(CC(C)C)N(C)CC2 (configuration not stated) | 11.5 | 3.67 | 11.4 | 11.8 | 4.91 | 10.4 | 2.18 | 4.05 | 3.78 | 3.58 | 8.16 |  | 2.18 | 1.45 | 2.5 |  | 8.85 | 4.5 | 0.837 | 4.21
5 | COC(=O)c1cn(CC(O)CCl)nn1 (configuration not stated) | > 100 | > 100 | > 100 |  | > 100 | > 100 | > 100 | > 100 | > 100 | > 100 |  | > 100 | > 100 | > 100 |  | > 100 | > 100 | > 100 | > 100 | 
6 | COc1cc2cc(C(=O)N3CC(CCl)c4ccc(N(C)C)cc43)[nH]c2c(OC)c1OC (configuration not stated) |  | 0.128 | 0.363 | 1.54 | 0.118 |  | 0.558 | 0.443 | 0.543 | 0.0349 | 0.292 | 1.33 | 8.21 | 0.2 | 0.428 | 0.378 | 3.81 | 1.28 | 0.213 | 
7 | COC1=CC(=O)C=C(OC)C1=O | 34.4 | 17.7 | 32.2 | 40.3 | 22.7 | 20.5 | 13 | 3.59 | 39.3 | 34.4 | 12.4 |  | 27 | 37.8 | 30.8 |  | 15.3 | 96.6 | 40.3 | 76.8
